Non-standard residues stand in square brackets, D forms with d. Residues, ends and D or L forms follow the SMILES beside them. *: point of attachment. Desaminotyrosyl = O=C(CCc1ccc(O)cc1)*; Nle = CCCC[C@H](N)C(=O)O; Orn = NCCC[C@H](N)C(=O)O; Abu = CC[C@H](N)C(=O)O; Aoc = NCCCCCCCC(=O)O
Legend:
GHRH receptor [1] = molecular target: T1, GHRH receptor (Homo sapiens, UniProt Q02643); experiment: GHRH receptor binding, competition with 125I-labeled JV-1-42, human pituitary membrane homogenates (Table 7); design: Normal human pituitaries were purchased from the National Hormone and Peptide Program; tissue National Hormone and Peptide Program (A.F. Parlow, Harbor-UCLA Medical Center, Torrance, Calif.); host or cells: normal human pituitary, membrane fraction; details: JI-38 = 1, Table 7
T1 sequence (Q02643 23-423): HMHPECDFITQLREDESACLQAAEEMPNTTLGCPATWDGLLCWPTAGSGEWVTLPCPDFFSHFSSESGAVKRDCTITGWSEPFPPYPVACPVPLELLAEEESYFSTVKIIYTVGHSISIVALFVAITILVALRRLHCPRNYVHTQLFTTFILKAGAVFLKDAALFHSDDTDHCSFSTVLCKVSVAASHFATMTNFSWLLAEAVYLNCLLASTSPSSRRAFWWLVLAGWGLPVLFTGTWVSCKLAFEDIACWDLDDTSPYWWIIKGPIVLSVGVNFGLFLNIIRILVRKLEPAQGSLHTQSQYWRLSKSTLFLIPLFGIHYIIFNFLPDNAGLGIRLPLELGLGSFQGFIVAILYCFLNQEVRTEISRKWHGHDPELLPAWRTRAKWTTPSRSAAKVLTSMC
Text: Normal human pituitaries were purchased from the National Hormone and Peptide Program (A.F. Parlow, Los Angeles, County Harbor-UCLA Medical Center, Torrance, Calif.).

GH release [2] = experiment: In vivo endocrine activity, GH release after intravenous administration (Table 8); details: rat, i.v. injection
Procedure: In vivo tests on endocrine activity of new GHRH agonists (Intravenous administration). For in vivo tests based on intravenous administration, adult male Sprague-Dawley rats were anesthetized with pentobarbital (6 mg/100/g, b.w.), and GHRH agonists were injected 20 minutes after the injection of pentobarbital. Blood samples were taken from the jugular vein (pretreated level), immediately after hGHRH(1-29)NH2 injection (as a control) or after hGHRH analogs injection. Blood samples were taken from the jugular vein 5, 15 and 30 minutes after the injection. The blood samples were centrifuged, plasma was removed and the GH level was measured by ELISA.

GHRH receptor [3] = molecular target: T1, GHRH receptor; experiment: Receptor binding in vitro, 125I-labeled [His1,Nle27]-hGHRH(1-32)NH2, membrane receptors of human anterior pituitary cells (Table 14)
GH release [4] = experiment: In vivo endocrine activity, GH release after subcutaneous administration (Table 9); details: rat, subcutaneous (s.c.) injection
Procedure: Subcutaneous Administration. Adult male rats were used and anesthetized with pentobarbital (6 mg/100 g, b.w.), by i.p. injection. […] Blood samples were taken from the jugular vein 5, 15 and/or 30 minutes after the injection. The blood samples were centrifuged, plasma was removed and the GH level was measured byELISA. The results are summarized in terms of potency in Table 9.

GH release [5] = experiment: GH releasing potency in vivo, subcutaneous administration (Example 14, Table 12); design: species or system rat; details: s.c.
Outline: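 Potency is expressed relative to GHRH(1-29)NH2 and JI-38 (each = 1), via equivalent GHRH(1-29)NH2 dose read from a standard curve. Peptides in 5% mannitol given i.v. or s.c. to anaesthetised male Sprague-Dawley rats (200-250 g); serum GH measured by ELISA at selected times.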

Row | Relative affinity (Binding potency) vs JI-38 (GHRH receptor [1]) | Relative affinity (Binding potency) compared to JI-38 (GHRH receptor [3]; JI-38 = 1) | Relative affinity (Binding potency) compared to hGHRH(1-29) (GHRH receptor [3]; hGHRH(1-29)NH2 = 1) | Compound | GH releasing potency in vivo relative to JI-38 (=1) (GH release [2]; 5 min after) | GH releasing potency in vivo relative to JI-38 (=1) (GH release [2]; 15 min after) | GH releasing potency in vivo relative to JI-38 (=1) (GH release [2]; 30 min after) | GH releasing potency relative to JI-38 (=1) (GH release [4]; 15 min after) | GH releasing potency relative to JI-38 (=1) (GH release [4]; 30 min after) | Serum GH level at selected time after injection (ng/ml), 0 min (GH release [5]; male rats, dose 3 μg/kg, 0 min, mean ± SEM) [ng/mL] | Serum GH level at selected time after injection (ng/ml), 15 min (GH release [5]; male rats, dose 3 μg/kg, 15 min, mean ± SEM) [ng/mL] | Serum GH level at selected time after injection (ng/ml), 30 min (GH release [5]; male rats, dose 3 μg/kg, 30 min, mean ± SEM) [ng/mL] | GH-releasing potency after s.c. administration (in words) (GH release [5]) | Relative potency compared to GHRH(1-29), 15 min (GH release [5]; 15 min) | Relative potency compared to JI-38, 15 min (GH release [5]; 15 min) | Relative potency compared to GHRH(1-29), 30 min (GH release [5]; 30 min) | Relative potency compared to JI-38, 30 min (GH release [5]; 30 min)
1 | 1.20 |  |  | CCCC[C@H](NC(=O)[C@@H](NC(=O)[C@H](CC(=O)O)NC(=O)[C@H](CCC(N)=O)NC(=O)[C@H](CC(C)C)NC(=O)[C@H](CC(C)C)NC(=O)[C@H](CCCN)NC(=O)[C@H](CCCNC(=N)N)NC(=O)[C@H](C)NC(=O)[C@H](CO)NC(=O)[C@H](CC(C)C)NC(=O)[C@H](CCC(N)=O)NC(=O)[C@H](CC)NC(=O)[C@H](CC(C)C)NC(=O)[C@@H](NC(=O)[C@H](CCCN)NC(=O)[C@H](CCCNC(=N)N)NC(=O)[C@H](Cc1ccc(O)cc1)NC(=O)[C@H](CO)NC(=O)[C@H](CC(N)=O)NC(=O)[C@@H](NC(=O)[C@H](Cc1ccccc1)NC(=O)[C@@H](NC(=O)[C@H](C)NC(=O)[C@H](CC(=O)O)NC(=O)[C@@H](C)NC(=O)CCc1ccc(O)cc1)[C@@H](C)CC)[C@@H](C)O)C(C)C)[C@@H](C)CC)C(=O)N[C@@H](CC(=O)O)C(=O)N[C@@H](CCCNC(=N)N)C(=O)NCCCCCCCC(N)=O [Peptide P-21300, [Dat^1, D-Ala^2, Orn^12, Abu^15, Orn^21, Nle^27, Asp^28, Amc^30]hGHRH(1-30)NH2] (Desaminotyrosyl-[dA]DAIFTNSYR[Orn]VL[Abu]QLSAR[Orn]LLQDI[Nle]DR[Aoc]-NH2) | 0.39 | 0.51 | 0.81 |  |  |  |  |  |  |  |  |  | 
2 | 1.59 | 1.05 | 2.94 | CCCC[C@H](NC(=O)[C@@H](NC(=O)[C@H](CC(=O)O)NC(=O)[C@H](CCC(N)=O)NC(=O)[C@H](CC(C)C)NC(=O)[C@H](CC(C)C)NC(=O)[C@H](CCCN)NC(=O)[C@H](CCCNC(=N)N)NC(=O)[C@H](C)NC(=O)[C@H](CO)NC(=O)[C@H](CC(C)C)NC(=O)[C@H](CCC(N)=O)NC(=O)[C@H](CC)NC(=O)[C@H](CC(C)C)NC(=O)[C@@H](NC(=O)[C@H](CCCN)NC(=O)[C@H](CCCNC(=N)N)NC(=O)[C@H](Cc1ccc(O)cc1)NC(=O)[C@H](CO)NC(=O)[C@H](CCC(N)=O)NC(=O)[C@@H](NC(=O)[C@H](Cc1ccccc1)NC(=O)[C@@H](NC(=O)[C@H](C)NC(=O)[C@H](CC(=O)O)NC(=O)[C@@H](C)NC(=O)CCc1ccc(O)cc1)[C@@H](C)CC)[C@@H](C)O)C(C)C)[C@@H](C)CC)C(=O)N[C@@H](CC(=O)O)C(=O)N[C@H](CCCNC(=N)N)C(=O)NC [Peptide P-27401, [Dat^1, D-Ala^2, Gln^8, Orn^12, Abu^15, Orn^21, Nle^27, Asp^28, D-Arg^29]hGHRH(1-29)NH—CH3] (Desaminotyrosyl-[dA]DAIFTQSYR[Orn]VL[Abu]QLSAR[Orn]LLQDI[Nle]D[dR]-NHMe) |  |  |  | 0.61 | 0.73 | 24.6 ± 5.3 | 217.9 ± 37.0 | 204.1 ± 23.7 | significantly higher potencies at 30 minutes than at 15 minutes | 58.8 | 0.93 | 253.4 | 2.27
3 |  |  |  | [N—Me-Tyr^1, D-Ala^2, Gln^8, Orn^12, Abu^15, Orn^21, Nle^27, Asp^28, Har^30]hGHRH(1-30)NH—CH3 [Peptide P-27450] | 0.07 | 0.11 | 0.49 |  |  |  |  |  |  |  |  |  | 
4 |  |  |  | [N—Me-Tyr^1, D-Ala^2, Gln^8, Orn^12, Abu^15, Orn^21, Nle^27, Asp^28, Apa^30]hGHRH(1-30)NH—CH2—CH3 [Peptide P-28475] | 0.19 | 0.36 | 0.92 |  |  |  |  |  |  |  |  |  | 

From patent publication US10555987B2, “GHRH agonists for the treatment of ischemic disorders” (UNIVERSITY OF MIAMI, priority 2012, dated 2020)
